Test results reported in patent publication US10253107B2, “Use of endocytosis inhibitors and antibodies for cancer therapy” (THE UNIVERSITY OF QUEENSLAND, priority 2012, dated 2019).
“Also recorded” adds a separate entry of the source. Like-named read-outs stand apart in the source and are kept apart here.

Experiments:
dynamin = settings: cited from earlier work
[1] = test system: EGFR endocytosis in A431 cells; assay: EGF-Alexa488 uptake immunofluorescence (ligand-induced EGFR endocytosis); assay type: cell-based, human; settings: 15 min EGF-Alexa488 uptake
Description: (§1) FIG. 23 is a photographic representation showing example panels for correlation between inhibited EGFR endocytosis and MHC class I and class II status. (A) Immunofluorescence showing manipulation of EGFR trafficking using a dynamin inhibitor. A431 cells were serum-starved for 3 hours and then treated with different concentrations of dynasore (0, 60 and 100 μM) for 0.5 and 24 hours. 15 minutes EGF-Alexa488 (100 ng/mL) uptakes were performed to monitor the trafficking of the ligand bound EGFRs (in green). The nuclei are shown in blue. (B) immunofluorescence showing changes in MHC class I and class II distributions caused by altered EGFR trafficking. A431 cells were treated with different concentrations of dynasore (0, 60 and 100 μM) for 0.5 hours, followed by fixation and permeabilization. MHC class I and class II were then labeled with primary antibodies PE-HLA-ABC and PE-HLA-DR, respectively, followed by secondary antibody labeling (Alexa 594). MHC I and II are shown in red while the nuclei are shown in blue.
FIG. 29 is a photographic representation showing Dyngo4a inhibition of EGFR endocytosis. […] Immunofluorescence was conducted to confirm the manipulation of EGFR trafficking using Dyngo4a. A431 cells were serum-starved for 3 hours and then treated with different concentrations of (A) Dyngo4a (0 and 30 μM) for 30 min. […] The nuclei are shown in blue. […]

HeLa cells [2] = assay: Dynasore 24 hour treatment, HeLa cells; assay type: cell-based
A431 cells [3] = assay: Dynasore 24 hour treatment, A431 cells; assay type: cell-based, human
Description: as §1

A431 cells [4] = assay: MHC class I and class II immunofluorescence in A431 cells; assay type: cell-based, human
Description: as §1

HeLa cells [5] = settings: dose dependent, previous study (23), read-out: IC50 of dynasore mediated endocytosis inhibition; cited from earlier work
A431 cells [6] = assay: MTS/MTT toxicity assay in the absence of PBMC, A431; assay type: cell-based
Description: (§2) FIG. 30 is a graphical representation of a multi-parametric FACS analysis showing that manipulation of EGFR trafficking with dynamin inhibitors, Dyngo4a and Pyrimidyn-7, results in enhanced ADCC in cetuximab-sensitive and insensitive cells. cetuximab-dependent ADCC assays were performed essentially according to the procedures outlined in FIGS. 27 and 28. […] (C) Percentage of specific KJD cell death is shown in the presence of dynamin inhibitors only. […] (E) An MTS assay was conducted in the absence of PBMC to assess toxicity of compounds in the absence of ADCC. […] Triton X100 is added as a control for maximum cell death. (F) An MTS assay was conducted in the absence of PBMC to assess toxicity of compounds in the absence of ADCC. […] Triton X100 is added as a control for maximum cell death. (G) An MTS assay was conducted to assess possible toxicity of dynamin inhibitors to PBMC cells. […] Triton X100 is added as a control for maximum cell death.
(§3) Compounds Dyngo4a and Pyrimidyn-7 were tested in both multi-variant FACS analysis assay as described in Example 4 and by MTT assay. In particular, compounds were tested for improvement of cetuximab-dependent ADCC against cetuximab-sensitive A431 cells and cetuximab-resistant KJD cells and for single agent toxicity.

PBMC = assay: MTS/MTT toxicity of dynamin inhibitors to PBMC; assay type: cell-based; settings: for toxicity to PBMC: MTS/MTT, single agent
Description: Dyngo4a (0 and 30 μM) was added at the end of the incubation. 10% Triton was added to A431 cells after 24-hour incubation with PBMCs for cell death control. The ADCC effects were measured by MTS assay. The cell viability was presented as OD values at 490 nm. The average of OD values released from background was subtracted from effector cell controls (A-II) and target/effector tests (A-III).
as §2, §3

A431 cells [7] = assay: Flow cytometry-based ADCC assay on A431 cells; assay type: cell-based, human; settings: FACS; for effect of dynamin inhibitor on cetuximab-dependent ADCC of A431 cells: inhibitor + cetuximab + PBMC
Description: Flow cytometry was performed on triplicate tubes per treatment. Target cells were harvested and labeled with 0.5 μM CFSE (Life technologies) for 10 minutes, followed by washing to remove excess dye. […] 30 μM Dyngo4a was added at given time points as described in figure legends. After the incubation, 5 ul of 7-AAD (BD Pharmingen) was added into each tube to indicate the target cells that were killed. Samples were analyzed by flow cytometry (BD FACSCanto). The percentage of specific target cell death was calculated using the following formula:

KJD cells [8] = assay: MTS/MTT toxicity assay in the absence of PBMC, KJD; assay type: cell-based; settings: absence of PBMC/ADCC, single agent or with cetuximab
Description: as §2, §3

A431 cells [9] = assay: Immunofluorescence of cetuximab-EGFR internalization, A431; assay type: cell-based, human; settings: 4-hour time-course, Dyngo4a added
Description: (§4) A431 cells were seeded on coverslips in 12-well plates and incubated overnight to reach 80% confluence. […] 30 μM dyngo4a was added at given time points as described in figure legends. The cells were then washed three times in ice cold PBS and fixed in 4% PFA/PBS for 30 minutes, followed by permeabilization in 0.1% TritonX/PBS (PBTX) for 20 minutes. […] The coverslips were mounted on slides in Prolong Gold (Life technologies). Images were acquired using a Zeiss 510 Meta confocal with a 63× objective.

KJD cells [10] = assay: Immunofluorescence of cetuximab-EGFR trafficking, KJD; assay type: cell-based, human; settings: incubation with Dyngo4a
Description: FIG. 28 is a photographic and graphical representation of a multi-parametric FACS analysis showing that manipulation of EGFR trafficking with dynamin inhibitors results in improved ADCC in cetuximab-insensitive cells. (A) Immunofluorescence imaging of cetuximab trafficking status in KJD cells. […] 7-AAD was added at the end of the 4-hour assay to label dead cells prior to FACS analysis. (B) Gating strategies used for the assessment of specific target cell death. FITC indicates CFSE while PerCP-Cy5.5 indicates 7-AAD. The dead target cells appear in the upper right quadrant, CFSE painted and 7-AAD positive. (C.1) KJD cell death under different conditions. (C.2) The percentage of specific KJD cell death was calculated. Data shown are an average of 3 experiments+/−SEM by Two-Way ANOVA with Bonferroni post test. ****: P≤0.0001; ***: P≤0.001; **: P≤0.01; *: P≤0.05. ns: no significance.
as §4

KJD cells [11] = assay: Flow cytometry-based ADCC assay on KJD cells; assay type: cell-based, human; settings: for effect of dynamin inhibitor on cetuximab-dependent ADCC of KJD cells: inhibitor + cetuximab + PBMC
Description: Flow cytometry was performed on triplicate tubes per treatment. Target cells were harvested and labeled with 0.5 μM CFSE (Life technologies) for 10 minutes, followed by washing to remove excess dye. […] 30 μM Dyngo4a was added at given time points as described in figure legends. After the incubation, 5 ul of 7-AAD (BD Pharmingen) was added into each tube to indicate the target cells that were killed. Samples were analyzed by flow cytometry (BD FACSCanto).

A431 cells [12] = assay: Cetuximab mediated ADCC MTS assay; assay type: cell-based, human; settings: Dyngo4a 30 μM + cetuximab 60 μg/mL + PBMC, vs cetuximab single treatment
Description: MTS assays were performed to measure absorbance at 490 nm. The cell viability is presented as the percentage of untreated viable cells. […] (B-I) MTS assays were performed to measure absorbance at 490 nm. (B-II) The target cell viability is presented as the percentage of untreated viable cells and calculated following the formula: % of untreated cells=(experimental OD−PBMC OD)/(A431 maximum OD−medium OD)×100%
Target cells (A431, number=2,500 per well) were seeded in 96-well round bottom plates and allowed to settle down for 2 hours. […] After 24 hours incubation, 20 μL MTS reagent was added into each well and incubated at 37° C. in 5% CO2 for 2 hours. The optical density (OD value) was read at 490 nm by a microplate spectrophotometer.

[13] = A431, dynasore 0, 60, 100 μM, 0.5 hours

In the case of N#C/C(=C\c1ccc(O)c(O)c1)C(=O)NCCCNC(=O)/C(C#N)=C/c1ccc(O)c(O)c1 [Bis-T-22, 2-cyano-N-{3-[2-cyano-3-(3,4-dihydroxyphenyl)-acryloylamino]-propyl}-3-(3-,4-dihydroxyphenyl)-acrylamide], the “basal dynamin GTPase activity” value (dynamin; absence of PS liposomes, dynamin rings) is listed as “stimulates basal dynamin GTPase activity” and the “inhibition of helical dynamin” value (dynamin; dynamin activated by phosphatidylserine (PS) liposomes) is listed as “potent in vitro inhibitor of dynamin”.

In the case of O=C(N/N=C/c1ccc(O)c(O)c1)c1cc2ccccc2cc1O [Dynasore, 3-hydroxynaphthalene-2-carboxylic acid (3,4-dihydroxybenzylidene) hydrazide], the “ligand-induced EGFR endocytosis” value [1] is reported as “successfully functioned as an endocytosis inhibitor”, the “cell morphology after 24 hours dynasore” value (HeLa cells [2]) is reported as “appeared apoptotic or to have cytokinetic defects” and the “cell morphology after 24 hours dynasore” value (A431 cells [3]) is reported as “cellular nuclear condensation”. The “plasma membrane levels of MHCI” value (A431 cells [4]; A431, EGF stimulation coupled with dynasore inhibition) was “no longer detectable”, the MHCI signal (A431 cells [4]; [13]) was “increasing MHCI signal” and the MHCII signal (A431 cells [4]; [13]) was “decrease in MHCII signal”. The IC50 (HeLa cells [5]) was about 15 µM.

With O=C(N/N=C/c1cc(O)c(O)cc1O)c1cc2ccccc2cc1O [Dyngo-4a] the “toxicity to A431 cells” value (A431 cells [6]) was “no toxicity as a single agent”, the “toxicity to A431 cells” value (A431 cells [6]; human) was “no significant toxicity on A431 cells” and the “cell viability of PBMCs (effector cells)” value (PBMC; Dyngo4a alone and with cetuximab, MTS, vs negative and 10% Triton controls) was “did not cause large cell viability reduction in PBMCs”. The “toxicity to PBMC” value (PBMC) was “no toxicity as a single agent; also recorded: no significant toxicity”, the “effect of Dyngo4a on Herceptin-dependent ADCC of A431 cells” value (A431 cells [7]; Dyngo4a + Herceptin + PBMC) was “enhance both cetuximab-dependent and Herceptin-dependent ADCC” and the “effect of dynamin inhibitor on cetuximab-dependent ADCC of A431 cells” value (A431 cells [7]) was “increased level of cetuximab-induced ADCC; also recorded: improve cetuximab-dependent ADCC; also recorded: enhance both cetuximab-dependent and Herceptin-dependent ADCC”. The “toxicity to KJD cells” value (KJD cells [8]) was “no toxicity as a single agent; also recorded: no significant toxicity on KJD cells”, the “ligand-induced EGFR endocytosis” value [1] was “has an inhibitory effect on the ligand-induced EGFR endocytosis” and the “surface and internalized levels of cetuximab” value (A431 cells [9]) was “increases surface levels of cetuximab and decreases internalized levels”. For the same molecule, the “plasma membrane expression of EGFR” value (KJD cells [10]) was “increased the plasma membrane expression of EGFR”, the “cetuximab-induced ADCC with Dyngo4a, KJD cell killing” value (KJD cells [11]; Dyngo4a 30 μM + cetuximab 60 μg/mL + PBMC, 4 hours) was “greater than 40%” and the “effect of Dyngo4a on Herceptin-dependent ADCC of KJD cells” value (KJD cells [11]; Dyngo4a + Herceptin + PBMC, FACS) was “enhance Herceptin-dependent ADCC of KJD cells even more so”. For the same molecule, the “tumor cell killing by inhibitor alone” value (KJD cells [11]; Dyngo4a alone, without cetuximab) was “did not kill tumor cells”, the “effect of dynamin inhibitor on cetuximab-dependent ADCC of KJD cells” value (KJD cells [11]; FACS) was “improve cetuximab-dependent ADCC; also recorded: enhance both cetuximab-dependent and Herceptin-dependent ADCC” and the “cetuximab mediated ADCC in presence of dynamin inhibitor (cell viability, MTS)” value (A431 cells [12]) was “cells lost more viability”.

For CCCCCCCCCCCCNc1cc(C)nc(NCCN(C)C)n1 [Pyrimidyn-7], the “toxicity to A431 cells” value (A431 cells [6]; MTS/MTT, absence of PBMC/ADCC, single agent or with cetuximab) was “showed single agent toxicity; also recorded: significant death of A431 cells”, the “toxicity to PBMC” value (PBMC) was “showed single agent toxicity; also recorded: shows toxicity” and the “effect of dynamin inhibitor on cetuximab-dependent ADCC of A431 cells” value (A431 cells [7]) was “improve cetuximab-dependent ADCC”. For the same molecule, the “toxicity to KJD cells” value (KJD cells [8]) was “showed single agent toxicity; also recorded: significant death of KJD cells”, the “cell death by ADCC in the absence of cetuximab” value (KJD cells [11]; KJD cells (FIG. 30C), inhibitor only) was “Some increase in cell death” and the “effect of dynamin inhibitor on cetuximab-dependent ADCC of KJD cells” value (KJD cells [11]; FACS) was “improve cetuximab-dependent ADCC”.
